Earlier results, collected in patent publication US20240077492A1, “ARRAY-BASED PEPTIDE LIBRARIES FOR THERAPEUTIC ANTIBODY CHARACTERIZATION” (Cowper Sciences Inc., priority 2016, published 2024).

Details: background statement

Substance: Remicade: one of the most prescribed antibody therapeutics
- effective in fraction of the patient population: 25%
